Reference: BindingDB's records for doi:10.1021/jm020955n (Johannes Gutenberg-Universität, 2002)

Target: Glutamate receptor ionotropic, NMDA 1 glycine site (Sus scrofa)
Test: Tested for the affinity for the glycine binding site of the N-methyl-D-aspartate glutamate receptor using pig brain membranes in binding assay with [3H]-MDL- 105,519

Row | SMILES | Ki
1 | O=C(O)c1cc2c(Cl)cc(Cl)cc2[nH]1 | 2900 nM
2 | O=C(O)c1[nH]c2cc(Cl)cc(Cl)c2c1CNS(=O)(=O)c1ccccc1 [3-(Benzenesulfonylamino-methyl)-4,6-dichloro-1H-indole-2-carboxylic acid] | 990 nM
3 | O=C(O)c1[nH]c2cc(Cl)cc(Cl)c2c1CNCc1ccccc1 [3-(Benzylamino-methyl)-4,6-dichloro-1H-indole-2-carboxylic acid] | 92000 nM
4 | CC(=O)c1cccc(-n2c(O)cn(Cc3c(C(=O)O)[nH]c4cc(Cl)cc(Cl)c34)c2=O)c1 [3-[3-(3-Acetyl-phenyl)-2,4-dioxo-imidazolidin-1-ylmethyl]-4,6-dichloro-1H-indole-2-carboxylic acid] | 57 nM
5 | CC(=O)c1ccc(-n2c(O)cn(Cc3c(C(=O)O)[nH]c4cc(Cl)cc(Cl)c34)c2=O)cc1 [3-[3-(4-Acetyl-phenyl)-2,4-dioxo-imidazolidin-1-ylmethyl]-4,6-dichloro-1H-indole-2-carboxylic acid] | 150 nM
6 | Cc1ccc(-n2c(O)cn(Cc3c(C(=O)O)[nH]c4cc(Cl)cc(Cl)c34)c2=O)cc1 [4,6-Dichloro-3-(2,4-dioxo-3-p-tolyl-imidazolidin-1-ylmethyl)-1H-indole-2-carboxylic acid] | 36 nM
7 | O=C(O)c1[nH]c2cc(Cl)cc(Cl)c2c1Cn1cc(O)n(-c2ccccc2)c1=O [4,6-Dichloro-3-(2,4-dioxo-3-phenyl-imidazolidin-1-ylmethyl)-1H-indole-2-carboxylic acid] | 22 nM
8 | O=C(O)c1[nH]c2cc(Cl)cc(Cl)c2c1CN1CCN(c2ccccc2)C1=O [4,6-Dichloro-3-(2-oxo-3-phenyl-imidazolidin-1-ylmethyl)-1H-indole-2-carboxylic acid] | 58 nM
9 | O=C(O)c1[nH]c2cc(Cl)cc(Cl)c2c1Cn1cc(O)n(C2CCCCC2)c1=O [4,6-Dichloro-3-(3-cyclohexyl-2,4-dioxo-imidazolidin-1-ylmethyl)-1H-indole-2-carboxylic acid] | 130 nM
10 | CCn1c(O)cn(Cc2c(C(=O)O)[nH]c3cc(Cl)cc(Cl)c23)c1=O [4,6-Dichloro-3-(3-ethyl-2,4-dioxo-imidazolidin-1-ylmethyl)-1H-indole-2-carboxylic acid] | 1000 nM
11 | CC(C)n1c(O)cn(Cc2c(C(=O)O)[nH]c3cc(Cl)cc(Cl)c23)c1=O [4,6-Dichloro-3-(3-isopropyl-2,4-dioxo-imidazolidin-1-ylmethyl)-1H-indole-2-carboxylic acid] | 1050 nM
12 | Cc1c(O)n(-c2ccccc2)c(=O)n1Cc1c(C(=O)O)[nH]c2cc(Cl)cc(Cl)c12 [4,6-Dichloro-3-(5-methyl-2,4-dioxo-3-phenyl-imidazolidin-1-ylmethyl)-1H-indole-2-carboxylic acid] | 310 nM
13 | O=C(O)c1[nH]c2cc(Cl)cc(Cl)c2c1Cn1cc(O)n(-c2ccc(Cl)cc2)c1=O [4,6-Dichloro-3-[3-(4-chloro-phenyl)-2,4-dioxo-imidazolidin-1-ylmethyl]-1H-indole-2-carboxylic acid] | 120 nM

Results, then the compound that gave them:

Row | Ki | SMILES
14 | 580 nM | O=C(O)c1[nH]c2cc(Cl)cc(Cl)c2c1Cn1cc(O)n(-c2ccccc2)c1=S [4,6-Dichloro-3-(4-oxo-3-phenyl-2-thioxo-imidazolidin-1-ylmethyl)-1H-indole-2-carboxylic acid]
15 | 80 nM | O=C(O)c1[nH]c2cc(Cl)cc(Cl)c2c1Cn1cc(O)n(-c2cc(Cl)cc(Cl)c2)c1=O [4,6-Dichloro-3-[3-(3,5-dichloro-phenyl)-2,4-dioxo-imidazolidin-1-ylmethyl]-1H-indole-2-carboxylic acid]
16 | 85 nM | O=C(O)c1[nH]c2cc(Cl)cc(Cl)c2c1Cn1cc(O)n(-c2cccc(Cl)c2)c1=O [4,6-Dichloro-3-[3-(3-chloro-phenyl)-2,4-dioxo-imidazolidin-1-ylmethyl]-1H-indole-2-carboxylic acid]
17 | 53 nM | O=C(O)c1[nH]c2cc(Cl)cc(Cl)c2c1Cn1cc(O)n(-c2ccc(F)cc2)c1=O [4,6-Dichloro-3-[3-(4-fluoro-phenyl)-2,4-dioxo-imidazolidin-1-ylmethyl]-1H-indole-2-carboxylic acid]
18 | 100 nM | COc1ccc(-n2c(O)cn(Cc3c(C(=O)O)[nH]c4cc(Cl)cc(Cl)c34)c2=O)cc1 [4,6-Dichloro-3-[3-(4-methoxy-phenyl)-2,4-dioxo-imidazolidin-1-ylmethyl]-1H-indole-2-carboxylic acid]
19 | 14 nM | O=C(NCc1c(C(=O)O)[nH]c2cc(Cl)cc(Cl)c12)Nc1ccccc1 [4,6-Dichloro-3-[(3-phenyl-ureido)-methyl]-1H-indole-2-carboxylic acid]
20 | 72 nM | O=C(NCc1c(C(=O)O)[nH]c2cc(Cl)cc(Cl)c12)NS(=O)(=O)c1ccccc1 [4,6-dichloro-3-[({[(phenylsulfonyl)amino]carbonyl}amino)methyl]-1H-indole-2-carboxylic acid]
